A short description of assay [1]: Inhibitory activity against 5-hydroxytryptamine receptor 1A using (+/-)-[3H]-8-hydroxydipropylaminotetralin. Also noted: species or system Homo sapiens.
In assay [2] the target is Sodium-dependent serotonin transporter (Homo sapiens, UniProt P31645). The experiment in a line: Inhibitory activity against human- serotonin reuptake transmitter using [3H]-citalopram as a radioligand.
Chain of Sodium-dependent serotonin transporter (P31645 whole entry): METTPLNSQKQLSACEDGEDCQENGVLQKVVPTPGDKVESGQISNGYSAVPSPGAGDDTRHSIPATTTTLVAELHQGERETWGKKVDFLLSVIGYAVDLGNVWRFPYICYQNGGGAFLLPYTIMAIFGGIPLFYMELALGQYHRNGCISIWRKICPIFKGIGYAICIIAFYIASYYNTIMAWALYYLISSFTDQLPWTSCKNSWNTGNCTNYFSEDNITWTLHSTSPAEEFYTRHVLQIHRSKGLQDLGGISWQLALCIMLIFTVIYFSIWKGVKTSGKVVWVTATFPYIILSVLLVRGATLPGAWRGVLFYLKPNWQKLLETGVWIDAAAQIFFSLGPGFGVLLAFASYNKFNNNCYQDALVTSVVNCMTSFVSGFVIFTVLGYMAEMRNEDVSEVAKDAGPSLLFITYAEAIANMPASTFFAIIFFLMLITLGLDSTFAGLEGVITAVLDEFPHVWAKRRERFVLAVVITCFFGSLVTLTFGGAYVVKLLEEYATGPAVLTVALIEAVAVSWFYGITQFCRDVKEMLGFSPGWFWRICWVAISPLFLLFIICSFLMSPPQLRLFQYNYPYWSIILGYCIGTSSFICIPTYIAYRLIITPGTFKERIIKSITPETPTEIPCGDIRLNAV

As to `Oc1nc2cc3c(cc2c2c1[C@@H](N1CCN(Cc4ccccc4I)CC1)CCC2)OCO3`, the IC50 (in general, the point on the concentration scale where inhibition reaches its midpoint) in assay [1] was over 1000 nM; in assay [2], 23 nM.

Turning to `O=C1O[C@]2(CC[C@@H](N3CCC(Cc4ccccc4F)CC3)CC2)c2ccc3c(c21)OCCO3`, the values for the concentration for half-maximal inhibition (IC50) in assay [1] and in assay [2] were 12 nM and 480 nM, respectively.

Regarding `COc1ccc(Br)c(CC2CCN([C@H]3CC[C@]4(CC3)OC(=O)c3c5c(ccc34)OCO5)CC2)c1`, the IC50 in assay [1] is 2.4 nM; in assay [2] it was 91 nM.

For `O=C1O[C@]2(CC[C@@H](N3CCC(Cc4cc(Cl)ccc4Cl)CC3)CC2)c2ccc3c(c21)OCO3`, the concentration for half-maximal inhibition (IC50) in assay [1] worked out at 2.3 nM; in assay [2] it was 92 nM.

For `O=C1O[C@]2(CC[C@@H](N3CCC(Cc4cc(F)ccc4F)CC3)CC2)c2ccc3c(c21)OCO3`, the IC50 in assay [1] worked out at 22 nM; in assay [2], 250 nM.

Turning to `O=C1O[C@]2(CC[C@@H](N3CCN(Cc4ccccc4I)CC3)CC2)c2ccc3c(c21)OCO3`, the IC50 in assay [1] is 9.6 nM; in assay [2], 48 nM.

The molecule `COc1ccc(F)c(CC2CCN([C@H]3CC[C@]4(CC3)OC(=O)c3c5c(ccc34)OCO5)CC2)c1` came in with a 50% inhibitory concentration (IC50) in assay [2] of 400 nM.

Regarding `O=C1O[C@]2(CC[C@@H](N3CCC(Cc4ccccc4Cl)CC3)CC2)c2ccc3c(c21)OCCO3`, the figures for the half-maximal inhibitory concentration (IC50) in assay [1] and in assay [2] were 19 nM and 100 nM, respectively.

As to `O=C1O[C@]2(CC[C@@H](N3CCC(Cc4ccccc4Br)CC3)CC2)c2ccc3c(c21)OCO3`, the half-inhibitory concentration (IC50) in assay [1] was determined as 9.6 nM; in assay [2], 45 nM.

In the case of `O=C1O[C@]2(CC[C@@H](N3CCC(Cc4cc(F)ccc4Br)CC3)CC2)c2ccc3c(c21)OCO3`, the IC50 stood at 14 nM in assay [1] and 82 nM in assay [2].

As for `COc1ccc(F)c(CC2CCN([C@H]3CC[C@]4(CC3)OC(=O)c3c5c(ccc34)OCCO5)CC2)c1`, the IC50 is 11 nM in assay [1] and 430 nM in assay [2].

With `O=C1O[C@]2(CC[C@@H](N3CCC(Cc4ccccc4C(F)(F)F)CC3)CC2)c2ccc3c(c21)OCCO3`, the values for the IC50 in assay [1] and in assay [2] were 43 nM and 510 nM, respectively.

For `O=C1O[C@]2(CC[C@@H](N3CCC(Cc4ccccc4C(F)(F)F)CC3)CC2)c2ccc3c(c21)OCO3`, the figures for the concentration for half-maximal inhibition (IC50) in assay [1] and in assay [2] were 67 nM and 180 nM, respectively.

On to `O=C1O[C@]2(CC[C@@H](N3CCN(Cc4ccccc4I)CC3)CC2)c2ccc3c(c21)OCCO3`, for which the IC50 amounted to 9.6 nM in assay [1] and 54 nM in assay [2].

Regarding `O=C1O[C@]2(CC[C@@H](N3CCC(Cc4cc(F)ccc4Br)CC3)CC2)c2ccc3c(c21)OCCO3`, the IC50 in assay [1] came to 11 nM; in assay [2] it was 77 nM.

Consider `O=C1O[C@]2(CC[C@@H](N3CCC(Cc4ccccc4Br)CC3)CC2)c2ccc3c(c21)OCCO3`, for which the half-maximal inhibitory concentration (IC50) in assay [1] worked out at 9.8 nM; in assay [2], 73 nM.

With `O=C1O[C@]2(CC[C@@H](N3CCC(Cc4cc(F)ccc4F)CC3)CC2)c2ccc3c(c21)OCCO3`, the 50% inhibitory concentration (IC50) in assay [1] turned out to be 14 nM; in assay [2], 110 nM.

`O=C1O[C@]2(CC[C@@H](N3CCC(Cc4ccccc4F)CC3)CC2)c2ccc3c(c21)OCO3`: the IC50 in assay [1] stood at 14 nM; in assay [2] it was 410 nM.

For the molecule `COc1ccccc1CC1CCN([C@H]2CC[C@]3(CC2)OC(=O)c2c4c(ccc23)OCO4)CC1`, the IC50 was found to be 6.7 nM in assay [1] and 150 nM in assay [2].

With `O=C1O[C@]2(CC[C@@H](N3CCC(Cc4ccccc4Cl)CC3)CC2)c2ccc3c(c21)OCO3`, the IC50 was 10 nM in assay [1] and 140 nM in assay [2].

For the molecule `COc1ccccc1CC1CCN([C@H]2CC[C@]3(CC2)OC(=O)c2c4c(ccc23)OCCO4)CC1`, the results for the IC50 in assay [1] and in assay [2] were 4.3 nM and 59 nM, respectively.

In the case of `Oc1nc2cc3c(cc2c2c1[C@@H](N1CCC(Cc4cc(F)ccc4F)CC1)CCC2)OCO3` (stereo in doubt; 3o), the values for the half-maximal inhibitory concentration (IC50) in assay [1] and in assay [2] were 440 nM and 5 nM, respectively.

Take `Oc1nc2cc3c(cc2c2c1[C@@H](N1CCC(Cc4cc(F)ccc4F)CC1)CCC2)OCO3` (stereo in doubt; 4o): the IC50 turned out to be 450 nM in assay [1] and 14 nM in assay [2].

Source of the values: ChEMBL document CHEMBL1137182, “Ligand conformation has a definitive effect on 5-HT1A and serotonin reuptake affinity” (Bioorg Med Chem Lett, 2004).
